These results are taken from ChEMBL document CHEMBL3727358, “Inhibitors of inducible form of 6-phosphofructose-2-kinase” (2014).

The target in assay [1] is T1, 6-phosphofructo-2-kinase/fructose-2,6-bisphosphatase 3 (Homo sapiens, UniProt Q16875). Kind of assay: Inhibition of iPFK2 (unknown origin) assessed as reduction in enzyme-mediated fructose-6-phosphate phosphorylation by measuring NADH absorbance pre-incubated for 10 mins before ATP/substrate addition followed by incubation for 1 hr by UV-Visible spectrometry based iPFK-2/PPI-PFK coupled enzyme assay.
T1 sequence (Q16875 whole entry): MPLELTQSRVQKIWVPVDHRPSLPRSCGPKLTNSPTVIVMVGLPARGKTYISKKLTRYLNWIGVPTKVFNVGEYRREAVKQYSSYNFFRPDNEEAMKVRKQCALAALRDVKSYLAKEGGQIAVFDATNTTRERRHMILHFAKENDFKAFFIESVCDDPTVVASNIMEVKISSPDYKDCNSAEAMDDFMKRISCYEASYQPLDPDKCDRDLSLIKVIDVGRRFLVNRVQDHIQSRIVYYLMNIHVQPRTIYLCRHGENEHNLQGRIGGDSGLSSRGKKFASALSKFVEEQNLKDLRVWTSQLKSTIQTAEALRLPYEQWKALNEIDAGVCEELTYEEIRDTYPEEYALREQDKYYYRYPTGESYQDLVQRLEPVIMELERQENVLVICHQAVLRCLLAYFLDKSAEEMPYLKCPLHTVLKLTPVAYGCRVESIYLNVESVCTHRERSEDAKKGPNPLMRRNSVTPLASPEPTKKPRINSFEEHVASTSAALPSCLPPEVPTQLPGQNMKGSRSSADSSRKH

The target in assay [2] is T1, 6-phosphofructo-2-kinase/fructose-2,6-bisphosphatase 3. Kind of assay: Inhibition of iPFK2 (unknown origin) assessed as reduction in enzyme-mediated fructose-6-phosphate phosphorylation by measuring ATP consumption incubated for 3 hrs by luciferase-luciferin-coupled chemiluminescence assay.

Usually IC50 stands for the concentration needed to halve the response being measured. For `COc1cccc([C@H](C)Nc2cc(-c3ccc4c(c3)CCO4)nc(C)n2)c1`, the IC50 in assay [1] and in assay [2] was 500 nM in each case.
`Cc1nc(NCc2cc(O)ccc2F)cc(-c2ccc3ncsc3c2)n1`: the IC50 in assay [1] and in assay [2] was 500 nM in each case.
As to `COc1ccc(Br)c(CNc2cc(-c3ccc4ncsc4c3)nc(C)n2)c1`, the values for the IC50 in assay [1] and in assay [2] were 500 nM and greater than 1000 nM, respectively.
For `Cc1nc(NC(C)c2cccc(-c3cnn(C)c3)c2)cc(-c2ccc(C(F)(F)F)cc2)n1` (stereo not given), in that order: greater than 1000 nM and greater than 1000 nM.
For `Cc1cc(-c2cc(N[C@@H]3CCCc4ccccc43)nc(C)n2)ccn1`, in that order: greater than 1000 nM and greater than 1000 nM.
Taken in the same sequence, the figures for `Cc1nc(NC(C)c2cccc(-c3ccc[nH]3)c2)cc(-c2ccc3ncsc3c2)n1` (stereo not given) were 500 nM and greater than 1000 nM.
In the case of `C#CCOc1cccc(C(C)Nc2cc(-c3ccc4ncsc4c3)nc(C)n2)c1` (stereo not given), the half-maximal inhibitory concentration (IC50) in assay [1] and in assay [2] was 500 nM throughout.
For the molecule `Cc1nc(NC(C)c2cccc(OCc3nc(C(=O)O)co3)c2)cc(-c2ccc3ncsc3c2)n1` (stereo not given), the figures for the IC50 in assay [1] and in assay [2] were greater than 1000 nM and 500 nM, respectively.
For `Cc1nc(NC(C)c2cccc(OCC(F)(F)F)c2)cc(-c2ccc3ncsc3c2)n1` (stereo not given), the concentration for half-maximal inhibition (IC50) is 500 nM in assay [1] and greater than 1000 nM in assay [2].
Taken in the same sequence, the figures for `Cc1nc(NC(C)c2cccc(OCC(=O)NC3CCCCC3)c2)cc(-c2ccc3ncsc3c2)n1` (stereo not given) were 500 nM and 500 nM.
As to `COc1cccc([C@H](C)Nc2cc(-c3cc4ccccc4o3)nc(C)n2)c1`, the IC50 in assay [1] and in assay [2] was greater than 1000 nM each time.
Consider `Cc1nc(NCc2ccccc2F)cc(-c2ccc3ncsc3c2)n1`, for which the IC50 in assay [1] is greater than 1000 nM; in assay [2] it was 500 nM.
Taken in the same sequence, the figures for `Cc1nc(NC(C)c2ccc(F)c(Br)c2)cc(-c2ccc3occ(C)c3c2)n1` (stereo not given) were 500 nM and greater than 1000 nM.
With `COc1cccc(-c2cc(NC(C)c3cccc(O)c3)nc(C)n2)c1F` (stereo not given), the half-inhibitory concentration (IC50) in assay [1] and in assay [2] was greater than 1000 nM throughout.
For the molecule `Cc1nc(NC(C)c2cccc(NC(=O)NC(N)=O)c2)cc(-c2ccc3ncsc3c2)n1` (stereo not given), the IC50 is 500 nM in assay [1] and greater than 1000 nM in assay [2].
For `COc1cccc([C@H](C)Nc2cc(-c3cc4ccccc4n3C)nc(C)n2)c1`, in that order: 500 nM and 500 nM.
Taken in the same sequence, the figures for `Cc1nc(N[C@@H]2CCCc3ccccc32)cc(-c2cc3ccccc3s2)n1` were 500 nM and greater than 1000 nM.
In the case of `Cc1nc(NC(C)c2cccc(-c3c(C)noc3C)c2)cc(-c2ccc3ncsc3c2)n1` (stereo not given), the results for the concentration for half-maximal inhibition (IC50) in assay [1] and in assay [2] were 500 nM and greater than 1000 nM, respectively.
For `Cc1nc(NC(C)c2cccc(N)c2)cc(-c2ccc3ncsc3c2)n1` (stereo not given), in that order: 500 nM and greater than 1000 nM.
Taken in the same sequence, the figures for `Cc1nc(NC(C)c2cccc(-c3cccc(F)c3)c2)cc(-c2ccc3ncsc3c2)n1` (stereo not given) were greater than 1000 nM and greater than 1000 nM.
For `Cc1nc(NC(C)c2cccc(OCC3CCCN(C(=O)OC(C)(C)C)C3)c2)cc(-c2ccc3ncsc3c2)n1` (stereo not given), the concentration for half-maximal inhibition (IC50) in assay [1] and in assay [2] was greater than 1000 nM each time.
Regarding `Cc1nc(NC(C)c2cccc([N+](=O)[O-])c2)cc(-c2ccc3ncsc3c2)n1` (stereo not given), the concentration for half-maximal inhibition (IC50) in assay [1] and in assay [2] was 500 nM in each case.
With `Cc1nc(N[C@@H]2CCCc3ccccc32)cc(-c2ccc(C#N)cc2)n1`, the concentration for half-maximal inhibition (IC50) in assay [1] and in assay [2] was greater than 1000 nM in each case.
Regarding `Cc1nc(NC(C)c2cccc(NS(=O)(=O)c3cn(C)cn3)c2)cc(-c2ccc3ncsc3c2)n1` (stereo not given), the IC50 in assay [1] and in assay [2] was greater than 1000 nM each time.
In the case of `Cc1nc(NC(C)c2ccc(F)c(-c3cnn(C)c3)c2)cc(-c2ccc3ncsc3c2)n1` (stereo not given), the figures for the IC50 in assay [1] and in assay [2] were 500 nM and greater than 1000 nM, respectively.
Take `Cc1nc(NC(C)c2cccc(OCC(=O)Nc3ccccc3)c2)cc(-c2ccc3ncsc3c2)n1` (stereo not given): the IC50 in assay [1] and in assay [2] was greater than 1000 nM each time.
With `Cc1nc(NC(C)c2cccc(OCC#N)c2)cc(-c2ccc3ccn(C)c3c2)n1` (stereo not given), the IC50 in assay [1] and in assay [2] was 500 nM throughout.
In the case of `COc1ccc(-c2cccc(C(C)Nc3cc(-c4ccc5ncsc5c4)nc(C)n3)c2)cn1` (stereo not given), the IC50 in assay [1] was 500 nM; in assay [2] it was greater than 1000 nM.
For `Cc1nc(NC(C)c2cccc(OCCS(C)(=O)=O)c2)cc(-c2ccc3ncsc3c2)n1` (stereo not given), in that order: greater than 1000 nM and greater than 1000 nM.
For `Cc1nc(N[C@@H]2CCCc3ccccc32)cc(-c2cnc3ccccc3c2)n1`, in that order: greater than 1000 nM and 500 nM.
For `Cc1nc(NC(C)c2cccc(OCc3cc(C)on3)c2)cc(-c2ccc3ncsc3c2)n1` (stereo not given), in that order: 500 nM and 500 nM.
For `COC(=O)COc1ccc(F)c(CNc2cc(-c3ccc4ncsc4c3)nc(C)n2)c1`, the concentration for half-maximal inhibition (IC50) in assay [1] and in assay [2] was greater than 1000 nM each time.
Consider `Cc1nc(NC(C)c2cccc(OCC3CCN(C(=O)OC(C)(C)C)CC3)c2)cc(-c2ccc3ncsc3c2)n1` (stereo not given), for which the 50% inhibitory concentration (IC50) in assay [1] and in assay [2] was greater than 1000 nM in each case.
As for `Cc1nc(NC(C)c2cccc(OCC3CCCN(C(=O)OC(C)(C)C)C3)c2)cc(-c2ccc3occ(C)c3c2)n1` (stereo not given), the IC50 in assay [1] was 500 nM; in assay [2] it was greater than 1000 nM.
In the case of `COc1ccc(F)c(CNc2cc(-c3ccc4ncsc4c3)nc(C)n2)c1`, the results for the IC50 in assay [1] and in assay [2] were greater than 1000 nM and 500 nM, respectively.
`Cc1nc(N[C@@H]2CCCc3ccccc32)cc(-c2ccc3cnn(C)c3c2)n1`: the half-inhibitory concentration (IC50) in assay [1] and in assay [2] was 500 nM throughout.
Consider `Cc1cc(COc2ccc(F)c(CNc3cc(-c4ccc5ncsc5c4)nc(C)n3)c2)n(C)n1`, for which the half-maximal inhibitory concentration (IC50) in assay [1] and in assay [2] was greater than 1000 nM in each case.
With `CCOC(=O)c1cncc(-c2cccc(C(C)Nc3cc(-c4ccc5ncsc5c4)nc(C)n3)c2)c1` (stereo not given), the 50% inhibitory concentration (IC50) was 500 nM in assay [1] and greater than 1000 nM in assay [2].
As to `Cc1nc(N[C@@H]2CCOc3ccccc32)cc(-c2ccc3ncsc3c2)n1`, the 50% inhibitory concentration (IC50) in assay [1] and in assay [2] was greater than 1000 nM throughout.
With `Cc1nc(NC(C)c2cccc(NC=O)c2)cc(-c2ccc3ncsc3c2)n1` (stereo not given), the half-maximal inhibitory concentration (IC50) in assay [1] and in assay [2] was greater than 1000 nM in each case.
With `Cc1nc(NCC2CCCN(C(=O)C3CCCC3)C2)cc(-c2ccc3ncsc3c2)n1` (stereo not given), the figures for the IC50 in assay [1] and in assay [2] were greater than 1000 nM and 500 nM, respectively.
Taken in the same sequence, the figures for `Cc1nc(NC(C)c2ccc(Cl)c(O)c2)cc(-c2ccc3occ(C)c3c2)n1` (stereo not given) were 500 nM and greater than 1000 nM.
For `Cc1ccc(OCc2noc(COc3cccc(C(C)Nc4cc(-c5ccc6ncsc6c5)nc(C)n4)c3)n2)cc1` (stereo not given), in that order: greater than 1000 nM and greater than 1000 nM.
Taken in the same sequence, the figures for `Cc1nc(NC(C)c2cccc(NC(N)=O)c2)cc(-c2ccc3ncsc3c2)n1` (stereo not given) were greater than 1000 nM and greater than 1000 nM.
As to `Cc1nc(NC(C)c2cccc(-c3cnn(C)c3)c2)cc(-c2ccc(F)c(C)c2)n1` (stereo not given), the results for the IC50 in assay [1] and in assay [2] were 500 nM and greater than 1000 nM, respectively.
As to `Cc1nc(N[C@@H](C)c2ccccc2)cc(-c2ccc3ncsc3c2)n1`, the IC50 in assay [1] and in assay [2] was greater than 1000 nM each time.
As for `Cc1nc(NC(C)c2cccc(-c3ccoc3)c2)cc(-c2ccc3ncsc3c2)n1` (stereo not given), the half-maximal inhibitory concentration (IC50) in assay [1] and in assay [2] was greater than 1000 nM each time.
As for `Cc1nc(NCC2CCCNC2)cc(-c2ccc3ncsc3c2)n1` (stereo not given), the half-inhibitory concentration (IC50) in assay [1] and in assay [2] was greater than 1000 nM each time.
With `CCN(CC)C(=O)COc1cccc(C(C)Nc2cc(-c3cccc(OC)c3F)nc(C)n2)c1` (stereo not given), the IC50 in assay [1] and in assay [2] was greater than 1000 nM each time.
Turning to `Cc1nc(N[C@@H]2CCCc3ccccc32)cc(-c2cc3ccccc3[nH]2)n1`, the IC50 in assay [1] and in assay [2] was greater than 1000 nM throughout.
For the molecule `Cc1nc(NC(C)c2cccc(-c3ccsc3)c2)cc(-c2ccc3ncsc3c2)n1` (stereo not given), the IC50 in assay [1] and in assay [2] was greater than 1000 nM each time.
Regarding `Cc1ccc(COc2cccc(C(C)Nc3cc(-c4ccc5ncsc5c4)nc(C)n3)c2)cc1` (stereo not given), the IC50 in assay [1] and in assay [2] was greater than 1000 nM each time.
`Cc1nc(N[C@H](C)c2cccc(-n3cnnn3)c2)cc(-c2ccc3occ(C)c3c2)n1`: the IC50 in assay [1] was greater than 1000 nM; in assay [2], 500 nM.
For `Cc1nc(NC(C)c2cccc(OCC3CCNCC3)c2)cc(-c2ccc3ncsc3c2)n1` (stereo not given), in that order: 500 nM and 500 nM.
For the molecule `Cc1nc(N[C@H](C)c2cccc(O)c2)cc(-c2ccc3ncsc3c2)n1`, the IC50 in assay [1] and in assay [2] was greater than 1000 nM throughout.
With `COC(=O)c1coc(COc2cccc(C(C)Nc3cc(-c4ccc5ncsc5c4)nc(C)n3)c2)n1` (stereo not given), the IC50 in assay [1] and in assay [2] was greater than 1000 nM each time.
With `Cc1nc(NC(C)c2ccccc2C)cc(-c2ccc3occ(C)c3c2)n1` (stereo not given), the 50% inhibitory concentration (IC50) in assay [1] and in assay [2] was greater than 1000 nM throughout.
For the molecule `Cc1nc(NCC2CCCN(C(=O)C3(C)CC3)C2)cc(-c2ccc3ncsc3c2)n1` (stereo not given), the values for the IC50 in assay [1] and in assay [2] were greater than 1000 nM and 500 nM, respectively.
Regarding `Cc1nc(NC(C)c2cccc(-c3cnn(C)c3)c2)cc(-c2ccc(C(C)C)cc2)n1` (stereo not given), the IC50 in assay [1] is 500 nM; in assay [2], greater than 1000 nM.
Take `Cc1nc(NC(C)c2cccc(OCCn3cccn3)c2)cc(-c2ccc3ncsc3c2)n1` (stereo not given): the half-inhibitory concentration (IC50) in assay [1] is 500 nM; in assay [2], greater than 1000 nM.
As for `COc1cccc([C@H](C)Nc2cc(-c3cnc4ccn(C)c4c3)nc(C)n2)c1`, the concentration for half-maximal inhibition (IC50) in assay [1] and in assay [2] was greater than 1000 nM each time.
On to `Cc1nc(NCc2cc(Br)ccc2F)cc(-c2ccc3ncsc3c2)n1`, for which the IC50 in assay [1] and in assay [2] was greater than 1000 nM throughout.
Take `Cc1nc(N[C@H](C)c2ccc(F)c(-c3cnn(C)c3)c2)cc(-c2ccc3occ(C)c3c2)n1`: the results for the 50% inhibitory concentration (IC50) in assay [1] and in assay [2] were 500 nM and greater than 1000 nM, respectively.
For `Cc1nc(NC(C)c2cccc(OCC(=O)C3CC3)c2)cc(-c2ccc3ncsc3c2)n1` (stereo not given), in that order: greater than 1000 nM and greater than 1000 nM.
Take `COC(=O)COc1cccc(C(C)Nc2cc(-c3ccc4ncsc4c3)nc(C)n2)c1` (stereo not given): the half-inhibitory concentration (IC50) in assay [1] and in assay [2] was greater than 1000 nM in each case.
